Test results taken from patent publication US6344351B2, “(R)-transaminase from arthrobacter” (Kaneka Corporation, priority 1995, dated 2002).

System: Arthrobacter species KNK168 strain
Assay: Resolution of racemic 2-amino-1-methoxypropane by cells with aldehyde amino acceptors
Type: cell-based
Conditions: 150 mM aldehyde as amino acceptor, 200 mM racemic 2-amino-1-methoxypropane, 30° C., 20 hours
Protocol: The Arthrobacter species KNK168 strain was cultured in the same manner as in Example 13, and the cells were separated from 1 ml of the culture. The cells were suspended in 1 ml of a reaction mixture containing a 0.1 M Tris-hydrochloric acid buffer (pH 8.5), 50 mg of racemic 2-amino-1-methoxypropane, 37.5 mg of pyruvic acid, and 0.1% of sodium dodecyl sulfate. The components were reacted at 30° C. for 24 hours with stirring. As a result of the analysis after the reaction, 23.4 mg of 2-amino-1-methoxypropane remained, and its optical purity was 95% ee ((S)-form).
By carrying out the same reaction as in Example 14 using 200 mM racemic 2-amino-1-methoxypropane, and 150 mM n-butylaldehyde or propionaldehyde, the components were reacted at 30° C. for 20 hours. As a result of the analysis thereof, the (S)-form of 2-amino-1-methoxypropane was concentrated, and the ratio of the (S)-form was 76% in a case of using n-butylaldehyde, and 58% in a case of using propionaldehyde.

Compound	ratio of the (S)-form of 2-amino-1-methoxypropane
CCCC=O [n-butylaldehyde]	76%
CCC=O [propionaldehyde]	58%
